Patent publication US8501750B2, “Heterocyclic compound and use thereof” (Takeda Pharmaceutical Company Limited, priority 2007, dated 2013)
Counter-ions that a name gives are not always drawn. Like-named read-outs stand apart in the source and are kept apart here.

How the values were obtained:
[1] = target: PPARγ (Homo sapiens (Human), UniProt P37231); assay: PPARγ activating action (luciferase reporter in PPARγ:RXRα:4ERPP/CHO-K1 cells); assay type: cell-based; settings: CHO-K1, 24 h, read-out: PPARγ activating action (activation % (1 μM))
Sequence of PPARγ (P37231 29-505): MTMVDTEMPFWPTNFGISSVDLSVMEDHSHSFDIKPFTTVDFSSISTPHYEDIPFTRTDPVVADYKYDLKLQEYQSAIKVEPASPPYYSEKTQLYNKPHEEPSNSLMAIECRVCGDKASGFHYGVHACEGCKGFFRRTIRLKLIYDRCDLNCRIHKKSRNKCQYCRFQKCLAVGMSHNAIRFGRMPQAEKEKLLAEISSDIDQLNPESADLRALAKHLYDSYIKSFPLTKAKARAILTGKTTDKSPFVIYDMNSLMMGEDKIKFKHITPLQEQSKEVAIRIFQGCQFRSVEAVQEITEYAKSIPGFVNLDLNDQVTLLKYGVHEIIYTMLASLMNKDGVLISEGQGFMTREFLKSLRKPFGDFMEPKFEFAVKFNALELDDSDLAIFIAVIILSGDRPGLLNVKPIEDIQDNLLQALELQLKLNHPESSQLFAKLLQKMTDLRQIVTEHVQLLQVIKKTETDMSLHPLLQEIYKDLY
Sequence of PPARγ (P19793 whole entry partner): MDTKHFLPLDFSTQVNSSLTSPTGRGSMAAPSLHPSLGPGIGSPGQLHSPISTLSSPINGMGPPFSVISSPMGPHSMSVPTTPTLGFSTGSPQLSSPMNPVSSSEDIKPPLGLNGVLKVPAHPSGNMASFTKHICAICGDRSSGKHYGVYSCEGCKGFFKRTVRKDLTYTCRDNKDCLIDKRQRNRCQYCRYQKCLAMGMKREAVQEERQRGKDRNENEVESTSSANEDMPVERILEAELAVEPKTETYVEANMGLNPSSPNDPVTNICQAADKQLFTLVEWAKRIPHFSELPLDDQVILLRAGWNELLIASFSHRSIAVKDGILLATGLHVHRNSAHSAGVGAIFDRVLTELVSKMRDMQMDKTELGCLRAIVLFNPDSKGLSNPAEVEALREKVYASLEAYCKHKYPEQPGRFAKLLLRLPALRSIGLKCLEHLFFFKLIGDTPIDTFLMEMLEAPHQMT
Method: Then the medium was removed from the 96-well half area white plate, 45 μl of Ham's F12 medium containing 0.1% fatty acid-free bovine serum albumin (BSA) and 5 μl of test compound were added, and the cells were cultured in a CO2 gas incubator at 37° C. for 1 day. The medium was removed and 20 μl of PicaGene 7.5 [manufactured by Dainippon Ink and Chemicals Corporation, Japan] diluted 2-fold with HBSS (HANKS' BALANCED SALT SOLUTION) [manufactured by BIO WHITTAKER, USA] was added. After stirring, the luciferase activity was determined using 1420 ARVO Multilabel Counter [manufactured by PerkinElmer, USA]. […] A CHO-K1 cell cultured in a 150 cm^2 cell culture flask [manufactured by Corning Costar Corporation, USA] containing Ham's F12 medium [manufactured by INVITROGEN, USA] supplemented with 10% fetal bovine serum [manufactured by INVITROGEN, USA] was scraped by treating with 0.5 g/L trypsin-0.2 g/L EDTA (ethylenediaminetetraacetic acid) [manufactured by Life Technologies, Inc., USA], and then the cell was washed with PBS (Phosphate-buffered saline) [manufactured by INVITROGEN, USA], centrifuged (1000 rpm, 5 minutes) and suspended in PBS. Subsequently, DNA was introduced into the cell under the conditions shown below using GENE PULSER [manufactured by Bio-Rad Laboratories, USA]. […] Subsequently, the cell was transferred into a F12 medium containing 10% fetal bovine serum and cultured for 24 hours, and then the cell was scraped again and centrifuged, and then suspended in Ham's F12 medium containing 10% fetal bovine serum supplemented with 500 μg/ml of Geneticin [manufactured by INVITROGEN, USA] and 250 μg/ml of Zeocin [manufactured by INVITROGEN, USA]. The obtained suspension was diluted to the density of 10^4 cells/ml and inoculated in a 96-well plate [manufactured by Corning Costar Corporation, USA], which was cultured in a CO2 gas incubator at 37° C., whereby obtaining a Geneticin- and Zeocin-resistant transformant.

[2] = target: AT1 receptor (Homo sapiens (Human), UniProt P30556); assay: AT1 receptor binding inhibitory action
Sequence of AT1 receptor (P30556 whole entry): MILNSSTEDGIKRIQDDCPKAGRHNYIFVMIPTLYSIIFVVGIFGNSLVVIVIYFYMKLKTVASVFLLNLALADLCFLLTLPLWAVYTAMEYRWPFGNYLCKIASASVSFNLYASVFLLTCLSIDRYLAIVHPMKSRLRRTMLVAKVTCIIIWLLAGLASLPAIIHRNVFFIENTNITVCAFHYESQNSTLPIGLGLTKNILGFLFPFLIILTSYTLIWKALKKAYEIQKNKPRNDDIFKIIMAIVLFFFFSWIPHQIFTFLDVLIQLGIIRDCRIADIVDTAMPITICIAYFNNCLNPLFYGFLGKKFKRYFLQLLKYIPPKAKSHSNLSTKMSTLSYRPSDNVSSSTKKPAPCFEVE

[3] = test compound 1 μM, luciferase activity relative to control compound X (1 μM) = 100%, non-administration group = 0%

SMILES | activation at 1 µM [1, 3] [%] | IC50 [2] [nM] | activation at 1 µM [1] [%]
O=c1[nH]c(-c2ccccc2-c2ccc(Cn3c(=O)n(CCc4ccc(Cl)cc4)c(=O)c4cc(CC(F)(F)F)sc43)cc2)no1 [Ex. 58, 3-[2-(4-chlorophenyl)ethyl]-1-{[2′-(5-oxo-4,5-dihydro-1,2,4-oxadiazol-3-yl)biphenyl-4-yl]methyl}-6-(2,2,2-trifluoroethyl)thieno[2,3-d]pyrimidine-2,4(1H,3H)-dione] | 27 | 1.6 | 
Cc1ccc(CCn2c(=O)c3cc(CC(F)(F)F)sc3n(Cc3ccc(-c4ccccc4-c4noc(=O)[nH]4)cc3)c2=O)cc1 [Ex. 59, 3-[2-(4-methylphenyl)ethyl]-1-{[2′-(5-oxo-4,5-dihydro-1,2,4-oxadiazol-3-yl)biphenyl-4-yl]methyl}-6-(2,2,2-trifluoroethyl)thieno[2,3-d]pyrimidine-2,4(1H,3H)-dione] | 58 | 1.2 | 
O=c1[nH]c(-c2ccccc2-c2ccc(Cn3c(=O)n(CCc4cccc(F)c4)c(=O)c4cc(CC(F)(F)F)sc43)cc2)no1 [Ex. 60, 3-[2-(3-fluorophenyl)ethyl]-1-{[2′-(5-oxo-4,5-dihydro-1,2,4-oxadiazol-3-yl)biphenyl-4-yl]methyl}-6-(2,2,2-trifluoroethyl)thieno[2,3-d]pyrimidine-2,4(1H,3H)-dione] | 42 | 1 | 
O=C(Cn1c(=O)c2cc(C3CC3)sc2n(Cc2ccc(-c3ccccc3-c3noc(=O)[nH]3)cc2)c1=O)c1ccc(F)cc1 [Ex. 63, 6-cyclopropyl-3-[2-(4-fluorophenyl)-2-oxoethyl]-1-{[2′-(5-oxo-4,5-dihydro-1,2,4-oxadiazol-3-yl)biphenyl-4-yl]methyl}thieno[2,3-d]pyrimidine-2,4(1H,3H)-dione] | 31 | 1.1 | 
CCc1cc2c(=O)n(CC(=O)c3ccc(OC)cc3F)c(=O)n(Cc3ccc(-c4ccccc4-c4noc(=O)[nH]4)cc3)c2s1 [Ex. 73, 6-ethyl-3-[2-(2-fluoro-4-methoxyphenyl)-2-oxoethyl]-1-{[2′-(5-oxo-4,5-dihydro-1,2,4-oxadiazol-3-yl)biphenyl-4-yl]methyl}thieno[2,3-d]pyrimidine-2,4(1H,3H)-dione] | 35 | 1.5 | 
CCc1cc2c(=O)n(CC(=O)c3ccc(OC)cc3C)c(=O)n(Cc3ccc(-c4ccccc4-c4noc(=O)[nH]4)cc3)c2s1 [Ex. 76, 6-ethyl-3-[2-(4-methoxy-2-methylphenyl)-2-oxoethyl]-1-{[2′-(5-oxo-4,5-dihydro-1,2,4-oxadiazol-3-yl)biphenyl-4-yl]methyl}thieno[2,3-d]pyrimidine-2,4(1H,3H)-dione] | 27 | 1 | 
CCc1cc2c(=O)n(CC(=O)c3ccc(OC)cc3)c(=O)n(Cc3ccc(-c4ccccc4-c4noc(=O)[nH]4)cc3F)c2s1 [Ex. 83, 6-ethyl-1-{[3-fluoro-2′-(5-oxo-4,5-dihydro-1,2,4-oxadiazol-3-yl)biphenyl-4-yl]methyl}-3-[2-(4-methoxyphenyl)-2-oxoethyl]thieno[2,3-d]pyrimidine-2,4(1H,3H)-dione] | 37 | 0.77 | 
COc1ccccc1C(=O)Cn1c(=O)c2cc(C3CC3)sc2n(Cc2ccc(-c3ccccc3-c3noc(O)n3)cc2)c1=O [Ex. 99, 6-cyclopropyl-3-[2-(2-methoxyphenyl)-2-oxoethyl]-1-{[2′-(5-oxo-4,5-dihydro-1,2,4-oxadiazol-3-yl)biphenyl-4-yl]methyl}thieno[2,3-d]pyrimidine-2,4(1H,3H)-dione potassium salt] |  | 1.2 | 56
COc1ccc(C(=O)Cn2c(=O)c3cc(C4CC4)sc3n(Cc3ccc(-c4ccccc4-c4noc(O)n4)cc3F)c2=O)cc1 [Ex. 105, 6-cyclopropyl-1-{[3-fluoro-2′-(5-oxo-4,5-dihydro-1,2,4-oxadiazol-3-yl)biphenyl-4-yl]methyl}-3-[2-(4-methoxyphenyl)-2-oxoethyl]thieno[2,3-d]pyrimidine-2,4(1H,3H)-dione potassium salt] |  | 1 | 34
COc1cccc(C(=O)Cn2c(=O)c3cc(C4CC4)sc3n(Cc3ccc(-c4ccccc4-c4noc(O)n4)cc3)c2=O)c1 [Ex. 107, 6-cyclopropyl-3-[2-(3-methoxyphenyl)-2-oxoethyl]-1-{[2′-(5-oxo-4,5-dihydro-1,2,4-oxadiazol-3-yl)biphenyl-4-yl]methyl}thieno[2,3-d]pyrimidine-2,4(1H,3H)-dione potassium salt] |  | 1.1 | 43
CCc1cc2c(=O)n(CC(=O)c3ccccc3OC)c(=O)n(Cc3ccc(-c4ccccc4-c4noc(O)n4)cc3)c2s1 [Ex. 109, 6-ethyl-3-[2-(2-methoxyphenyl)-2-oxoethyl]-1-{[2′-(5-oxo-4,5-dihydro-1,2,4-oxadiazol-3-yl)biphenyl-4-yl]methyl}thieno[2,3-d]pyrimidine-2,4(1H,3H)-dione potassium salt] |  | 1.4 | 64
CCc1cc2c(=O)n(CC(=O)c3ccc(OC)cc3)c(=O)n(Cc3ccc(-c4ccccc4-c4noc(O)n4)cc3C)c2s1 [Ex. 116, 6-ethyl-3-[2-(4-methoxyphenyl)-2-oxoethyl]-1-{[3-methyl-2′-(5-oxo-4,5-dihydro-1,2,4-oxadiazol-3-yl)biphenyl-4-yl]methyl}thieno[2,3-d]pyrimidine-2,4(1H,3H)-dione potassium salt] |  | 1.8 | 38
CCc1cc2c(=O)n(CCN3CCOCC3)c(=O)n(Cc3ccc(-c4ccccc4-c4noc(=O)[nH]4)cc3F)c2s1 [Ex. 117, 6-ethyl-1-{[3-fluoro-2′-(5-oxo-4,5-dihydro-1,2,4-oxadiazol-3-yl)biphenyl-4-yl]methyl}-3-(2-morpholin-4-ylethyl)thieno[2,3-d]pyrimidine-2,4(1H,3H)-dione] | 62 | 1.8 | 
CCc1cc2c(=O)n(CC(=O)c3ccc(Cl)cc3)c(=O)n(Cc3ccc(-c4ccccc4-c4noc(=O)[nH]4)cc3)c2s1 [Ex. 121, 3-[2-(4-chlorophenyl)-2-oxoethyl]-6-ethyl-1-{[2′-(5-oxo-4,5-dihydro-1,2,4-oxadiazol-3-yl)biphenyl-4-yl]methyl}thieno[2,3-d]pyrimidine-2,4(1H,3H)-dione] | 28 | 1.7 | 
COc1ccccc1C(=O)Cn1c(=O)c2cc(CC(F)(F)F)sc2n(Cc2c(F)cc(-c3ccccc3-c3noc(O)n3)cc2F)c1=O [Ex. 127, 1-{[3,5-difluoro-2′-(5-oxo-4,5-dihydro-1,2,4-oxadiazol-3-yl)biphenyl-4-yl]methyl}-3-[2-(2-methoxyphenyl)-2-oxoethyl]-6-(2,2,2-trifluoroethyl)thieno[2,3-d]pyrimidine-2,4(1H,3H)-dione potassium salt] |  | 1.4 | 53
COc1cc(F)ccc1C(=O)Cn1c(=O)c2cc(C3CC3)sc2n(Cc2ccc(-c3ccccc3-c3noc(=O)[nH]3)cc2F)c1=O [Ex. 129, 6-cyclopropyl-3-[2-(4-fluoro-2-methoxyphenyl)-2-oxoethyl]-1-{[3-fluoro-2′-(5-oxo-4,5-dihydro-1,2,4-oxadiazol-3-yl)biphenyl-4-yl]methyl}thieno[2,3-d]pyrimidine-2,4(1H,3H)-dione] | 61 | 1.6 | 
COc1cc(F)ccc1C(=O)Cn1c(=O)c2cc(C3CC3)sc2n(Cc2ccc(-c3ccccc3-c3noc(=O)[nH]3)cc2)c1=O [Ex. 130, 6-cyclopropyl-3-[2-(4-fluoro-2-methoxyphenyl)-2-oxoethyl]-1-{[2′-(5-oxo-4,5-dihydro-1,2,4-oxadiazol-3-yl)biphenyl-4-yl]methyl}thieno[2,3-d]pyrimidine-2,4(1H,3H)-dione] | 56 | 1.6 | 
CCc1cc2c(=O)n(CC(=O)C(C)(C)C)c(=O)n(Cc3ccc(-c4ccccc4-c4noc(=O)[nH]4)cc3)c2s1 [Ex. 131, 3-(3,3-dimethyl-2-oxobutyl)-6-ethyl-1-{[2′-(5-oxo-4,5-dihydro-1,2,4-oxadiazol-3-yl)biphenyl-4-yl]methyl}thieno[2,3-d]pyrimidine-2,4(1H,3H)-dione] | 72 | 1.2 | 
CCc1cc2c(=O)n(CC(=O)C34CC5CC(CC(C5)C3)C4)c(=O)n(Cc3ccc(-c4ccccc4-c4noc(=O)[nH]4)cc3)c2s1 [Ex. 132, 3-[2-(1-adamantyl)-2-oxoethyl]-6-ethyl-1-{[2′-(5-oxo-4,5-dihydro-1,2,4-oxadiazol-3-yl)biphenyl-4-yl]methyl}thieno[2,3-d]pyrimidine-2,4(1H,3H)-dione] | 50 | 1.7 | 
